Assay [1] deals with Growth hormone secretagogue receptor type 1 (Homo sapiens, UniProt Q92847).
For assay [2], the target named is Sodium-dependent noradrenaline transporter (Homo sapiens, UniProt P23975).
For assay [3], the target named is 5-hydroxytryptamine receptor 2A (Homo sapiens, UniProt P28223). Type of assay: functional, cell-based.
Assay [4] deals with Sodium-dependent dopamine transporter (Homo sapiens, UniProt Q01959).
In assay [5] the target is T1, Muscarinic acetylcholine receptor M2 (Homo sapiens, UniProt P08172).
T1 sequence (P08172 whole entry): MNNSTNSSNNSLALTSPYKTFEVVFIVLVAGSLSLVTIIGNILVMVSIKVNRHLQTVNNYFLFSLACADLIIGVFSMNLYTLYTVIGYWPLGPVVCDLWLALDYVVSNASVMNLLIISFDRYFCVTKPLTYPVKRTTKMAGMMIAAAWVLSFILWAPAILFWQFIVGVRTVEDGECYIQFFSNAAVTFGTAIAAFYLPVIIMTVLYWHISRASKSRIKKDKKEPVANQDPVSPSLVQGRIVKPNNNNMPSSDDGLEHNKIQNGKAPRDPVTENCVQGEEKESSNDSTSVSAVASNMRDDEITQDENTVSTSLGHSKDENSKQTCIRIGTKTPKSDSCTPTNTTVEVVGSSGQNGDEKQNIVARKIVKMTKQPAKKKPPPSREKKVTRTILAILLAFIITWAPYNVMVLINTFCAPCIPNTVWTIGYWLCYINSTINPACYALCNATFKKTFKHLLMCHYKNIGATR
Type of assay: functional, cell-based.

The target in assay [6] is T2, Type-1 angiotensin II receptor (Homo sapiens, UniProt P30556).
T2 sequence (P30556 whole entry): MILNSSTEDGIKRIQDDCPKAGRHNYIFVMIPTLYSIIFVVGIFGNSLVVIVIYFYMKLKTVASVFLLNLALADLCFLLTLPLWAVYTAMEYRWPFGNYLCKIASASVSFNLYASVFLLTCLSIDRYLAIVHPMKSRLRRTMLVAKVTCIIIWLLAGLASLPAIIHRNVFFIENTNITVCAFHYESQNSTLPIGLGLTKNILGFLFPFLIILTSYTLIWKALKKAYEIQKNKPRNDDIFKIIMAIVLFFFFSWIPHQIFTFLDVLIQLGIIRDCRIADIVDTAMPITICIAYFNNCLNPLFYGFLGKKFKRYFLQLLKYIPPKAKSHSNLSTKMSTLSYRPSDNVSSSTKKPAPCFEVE

Assay [7] concerns the target Beta-2 adrenergic receptor (Homo sapiens, UniProt P07550).
In assay [8] the target is T3, 5-hydroxytryptamine receptor 3A (Homo sapiens, UniProt P46098).
T3 sequence (P46098 whole entry): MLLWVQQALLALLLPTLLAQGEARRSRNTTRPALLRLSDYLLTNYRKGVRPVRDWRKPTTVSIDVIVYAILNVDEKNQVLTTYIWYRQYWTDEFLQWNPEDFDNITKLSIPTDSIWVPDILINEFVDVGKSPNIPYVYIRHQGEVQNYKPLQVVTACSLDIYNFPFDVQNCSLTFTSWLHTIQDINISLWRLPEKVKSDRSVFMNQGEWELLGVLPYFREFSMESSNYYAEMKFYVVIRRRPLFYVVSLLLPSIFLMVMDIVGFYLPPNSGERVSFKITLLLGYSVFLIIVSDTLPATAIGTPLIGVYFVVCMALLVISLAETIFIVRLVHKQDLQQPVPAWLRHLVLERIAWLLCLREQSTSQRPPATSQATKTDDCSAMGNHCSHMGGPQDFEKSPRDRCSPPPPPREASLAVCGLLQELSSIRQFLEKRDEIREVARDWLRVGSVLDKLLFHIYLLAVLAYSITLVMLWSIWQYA
The format is functional.

Assay [9] has as its target Adenosine receptor A2a (Homo sapiens, UniProt P29274).
Assay [10] concerns the target T4, Muscarinic acetylcholine receptor M1 (Homo sapiens, UniProt P11229).
T4 sequence (P11229 whole entry): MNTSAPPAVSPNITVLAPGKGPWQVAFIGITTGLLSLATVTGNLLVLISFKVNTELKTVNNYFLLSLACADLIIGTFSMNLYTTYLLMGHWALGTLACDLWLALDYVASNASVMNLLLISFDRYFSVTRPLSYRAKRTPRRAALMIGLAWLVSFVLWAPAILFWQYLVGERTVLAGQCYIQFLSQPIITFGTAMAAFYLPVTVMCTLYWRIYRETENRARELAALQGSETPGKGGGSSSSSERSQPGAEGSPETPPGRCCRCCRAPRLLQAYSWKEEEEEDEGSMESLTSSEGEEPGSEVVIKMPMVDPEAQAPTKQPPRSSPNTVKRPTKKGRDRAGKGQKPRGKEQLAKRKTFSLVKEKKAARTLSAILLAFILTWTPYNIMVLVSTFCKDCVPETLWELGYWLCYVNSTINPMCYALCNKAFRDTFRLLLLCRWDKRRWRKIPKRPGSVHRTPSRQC
The format is functional.

Some results are limits rather than exact numbers.
Note: assay procedure not described here.

Sequence of Growth hormone secretagogue receptor type 1 (Q92847 whole entry): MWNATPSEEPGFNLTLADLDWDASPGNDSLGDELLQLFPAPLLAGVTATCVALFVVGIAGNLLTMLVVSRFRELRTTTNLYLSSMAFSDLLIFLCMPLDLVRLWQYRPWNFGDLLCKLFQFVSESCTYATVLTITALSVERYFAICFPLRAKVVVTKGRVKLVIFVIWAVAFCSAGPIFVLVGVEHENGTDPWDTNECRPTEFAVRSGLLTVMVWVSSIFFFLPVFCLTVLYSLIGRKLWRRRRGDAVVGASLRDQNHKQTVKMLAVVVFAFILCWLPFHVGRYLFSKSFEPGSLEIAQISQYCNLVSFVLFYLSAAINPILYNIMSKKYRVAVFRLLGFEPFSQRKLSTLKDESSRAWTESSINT
Sequence of Adenosine receptor A2a (P29274 whole entry): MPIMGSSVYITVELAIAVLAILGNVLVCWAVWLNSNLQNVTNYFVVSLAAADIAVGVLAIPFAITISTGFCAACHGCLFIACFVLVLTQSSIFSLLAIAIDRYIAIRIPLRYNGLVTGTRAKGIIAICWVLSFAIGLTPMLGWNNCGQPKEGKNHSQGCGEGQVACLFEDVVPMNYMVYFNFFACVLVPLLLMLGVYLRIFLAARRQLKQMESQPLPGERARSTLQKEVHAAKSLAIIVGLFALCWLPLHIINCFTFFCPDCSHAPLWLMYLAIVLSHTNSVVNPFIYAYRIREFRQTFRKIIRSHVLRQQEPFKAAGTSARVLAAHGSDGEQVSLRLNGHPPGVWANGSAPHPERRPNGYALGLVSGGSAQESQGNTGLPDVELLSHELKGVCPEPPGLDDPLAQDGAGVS
Sequence of Sodium-dependent noradrenaline transporter (P23975 whole entry): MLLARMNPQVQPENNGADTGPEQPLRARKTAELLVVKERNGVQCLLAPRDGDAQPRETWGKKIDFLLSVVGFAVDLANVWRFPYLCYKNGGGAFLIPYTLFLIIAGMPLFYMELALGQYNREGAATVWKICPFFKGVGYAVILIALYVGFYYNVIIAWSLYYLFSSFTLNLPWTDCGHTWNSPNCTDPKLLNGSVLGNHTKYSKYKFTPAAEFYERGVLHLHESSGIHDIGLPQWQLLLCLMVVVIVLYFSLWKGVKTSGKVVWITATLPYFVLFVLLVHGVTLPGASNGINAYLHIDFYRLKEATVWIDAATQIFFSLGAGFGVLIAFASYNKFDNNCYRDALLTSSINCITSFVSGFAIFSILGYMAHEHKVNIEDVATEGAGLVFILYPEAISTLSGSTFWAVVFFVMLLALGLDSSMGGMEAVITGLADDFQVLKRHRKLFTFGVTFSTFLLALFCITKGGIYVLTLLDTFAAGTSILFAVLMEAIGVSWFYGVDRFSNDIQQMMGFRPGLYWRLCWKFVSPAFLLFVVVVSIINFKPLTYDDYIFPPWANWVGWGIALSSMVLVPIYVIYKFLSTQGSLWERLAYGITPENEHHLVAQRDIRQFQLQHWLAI
Sequence of 5-hydroxytryptamine receptor 2A (P28223 whole entry): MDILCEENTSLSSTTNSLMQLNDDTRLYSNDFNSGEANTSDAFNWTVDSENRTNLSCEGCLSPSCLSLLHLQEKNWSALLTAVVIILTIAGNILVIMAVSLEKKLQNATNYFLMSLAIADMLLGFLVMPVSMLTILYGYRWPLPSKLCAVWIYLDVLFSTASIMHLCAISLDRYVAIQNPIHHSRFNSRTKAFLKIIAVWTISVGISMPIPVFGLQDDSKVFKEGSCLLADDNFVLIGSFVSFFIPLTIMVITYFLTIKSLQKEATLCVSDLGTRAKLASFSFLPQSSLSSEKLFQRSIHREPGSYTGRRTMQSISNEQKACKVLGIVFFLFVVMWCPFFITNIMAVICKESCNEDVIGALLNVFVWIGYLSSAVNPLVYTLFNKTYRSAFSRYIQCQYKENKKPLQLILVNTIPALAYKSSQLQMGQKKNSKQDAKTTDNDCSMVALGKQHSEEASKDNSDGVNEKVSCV
Sequence of Beta-2 adrenergic receptor (P07550 whole entry): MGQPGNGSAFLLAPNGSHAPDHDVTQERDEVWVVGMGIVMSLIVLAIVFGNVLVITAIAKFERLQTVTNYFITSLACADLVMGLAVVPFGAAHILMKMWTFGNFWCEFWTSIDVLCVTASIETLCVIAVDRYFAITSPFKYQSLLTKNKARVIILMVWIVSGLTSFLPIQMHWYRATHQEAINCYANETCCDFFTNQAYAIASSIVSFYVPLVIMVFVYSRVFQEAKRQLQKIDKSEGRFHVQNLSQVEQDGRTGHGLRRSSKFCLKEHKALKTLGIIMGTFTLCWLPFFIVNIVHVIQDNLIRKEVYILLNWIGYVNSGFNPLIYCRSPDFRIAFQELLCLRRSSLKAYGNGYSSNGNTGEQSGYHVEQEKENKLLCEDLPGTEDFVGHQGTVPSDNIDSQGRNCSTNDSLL
Sequence of Sodium-dependent dopamine transporter (Q01959 whole entry): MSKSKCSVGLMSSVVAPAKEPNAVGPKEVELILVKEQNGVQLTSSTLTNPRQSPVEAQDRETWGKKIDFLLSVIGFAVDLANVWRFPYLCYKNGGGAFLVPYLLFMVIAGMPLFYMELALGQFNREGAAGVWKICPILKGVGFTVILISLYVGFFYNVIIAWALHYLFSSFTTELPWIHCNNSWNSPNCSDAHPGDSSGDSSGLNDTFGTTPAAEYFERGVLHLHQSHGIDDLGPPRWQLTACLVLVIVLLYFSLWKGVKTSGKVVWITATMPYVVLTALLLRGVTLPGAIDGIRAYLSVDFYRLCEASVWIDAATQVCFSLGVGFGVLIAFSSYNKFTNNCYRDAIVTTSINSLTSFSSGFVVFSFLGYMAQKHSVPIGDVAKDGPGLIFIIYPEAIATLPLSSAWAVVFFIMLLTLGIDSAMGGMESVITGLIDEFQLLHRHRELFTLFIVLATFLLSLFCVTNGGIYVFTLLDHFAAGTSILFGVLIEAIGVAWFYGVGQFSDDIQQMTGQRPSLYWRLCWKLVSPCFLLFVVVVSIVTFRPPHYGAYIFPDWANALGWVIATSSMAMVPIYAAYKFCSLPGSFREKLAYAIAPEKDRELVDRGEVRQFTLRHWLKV

Usually AC50 stands for the midpoint of the concentration-response curve, whichever way the signal moves. Read a high AC50 as activity only at high concentration. For the molecule `CC(C(=O)O)c1ccc(C(=O)c2cccs2)cc1` (stereo not given) [SUPROFEN], the AC50 in assay [1], in assay [2], in [3], in [4], in assay [5] and in [6] was > 10 µM throughout. The AC50 in assay [7] was > 10 µM; in [8], > 30 µM; in assay [9], > 10 µM; in assay [10], > 10 µM.
Turning to `CCCS(=O)(=O)Nc1ccc(F)c(C(=O)c2c[nH]c3ncc(-c4ccc(Cl)cc4)cc23)c1F` [VEMURAFENIB], the AC50 in assay [1], in assay [2], in [3], in assay [4], in assay [5] and in assay [6] was > 30 µM each time. The AC50 in [7], in assay [8], in assay [9] and in assay [10] was > 30 µM throughout.
With `NC(=O)c1ncn([C@@H]2O[C@H](CO)[C@@H](O)[C@H]2O)c1O` [MIZORIBINE], the AC50 in assay [1], in assay [2], in [3], in [4], in assay [5] and in [6] was > 30 µM each time. For the same molecule, the AC50 in assay [8], in assay [9] and in assay [10] was > 30 µM throughout.
For `CN1C(=O)CC(C)(c2ccccc2)C1=O` (stereo not given) [METHSUXIMIDE], the AC50 in assay [1], in assay [2], in assay [3], in [4], in [5] and in assay [6] was > 10 µM throughout. The half-maximal activity concentration (AC50) in assay [7] was > 10 µM; in assay [8] it was > 30 µM; in assay [9], > 10 µM; in assay [10], > 10 µM.
In the case of `OCc1cc([C@@H](O)CNCCCCCCOCCOCc2c(Cl)cccc2Cl)ccc1O` [VILANTEROL], the half-maximal activity concentration (AC50) is 13 µM in assay [1]; 23 µM in assay [2]; > 30 µM in assay [3]; 6.7 µM in assay [4]; > 30 µM in assay [5]; > 30 µM in assay [6]. Besides, the AC50 in [8], in assay [9] and in [10] was > 30 µM in each case.
Consider `CO/N=C(\C(=O)N[C@@H]1C(=O)N2C(C(=O)[O-])=C(C[N+]3(C)CCCC3)CS[C@H]12)c1csc(N)n1`, for which the AC50 in assay [1], in assay [2], in assay [3], in assay [4], in assay [5] and in [6] was > 300 µM throughout. The AC50 in assay [7] is > 30 µM; in [8] it was > 300 µM; in assay [9], > 300 µM; in [10], > 300 µM.
Turning to `CC(=O)c1ccc2c(c1)N(CCCN1CCN(CCO)CC1)c1ccccc1S2` [ACETOPHENAZINE], the AC50 in [1] was > 30 µM; in [2], 17 µM; in [3], > 30 µM; in [4], 25 µM; in assay [5], > 30 µM; in assay [6], > 30 µM. Besides, the AC50 in assay [8], in assay [9] and in assay [10] was > 30 µM throughout.
With `C[C@@H]1O[C@@H]1P(=O)(O)O` [FOSFOMYCIN], the AC50 in assay [1], in assay [2], in assay [3], in [4], in assay [5] and in [6] was > 10 µM throughout. Moreover, the AC50 in assay [7] is > 10 µM; in [8], > 30 µM; in assay [9], > 10 µM; in assay [10], > 10 µM.
For `CC(C)NCC(O)COc1ccc(COCCOC(C)C)cc1` (stereo not given) [BISOPROLOL], the AC50 in assay [1] is > 30 µM; in [2] it was > 10 µM; in assay [3], > 30 µM; in assay [4] it was > 10 µM; in [5], > 10 µM; in assay [6] it was > 30 µM. Also, the AC50 in [8] is > 10 µM; in assay [9] it was > 30 µM; in assay [10], > 10 µM.
Consider `COC(=O)[C@@H]1CC2=CC(=O)CC[C@]2(C)[C@@]23O[C@@H]2C[C@@]2(C)[C@@H](CC[C@@]24CCC(=O)O4)[C@H]13` [EPLERENONE], for which the AC50 in assay [1], in assay [2], in [3], in assay [4], in assay [5] and in assay [6] was > 30 µM in each case. For the same molecule, the AC50 in [7] is > 10 µM; in assay [8] it was > 30 µM; in assay [9] it was > 30 µM; in [10], > 30 µM.
Take `Cc1ccc(C(=O)c2cc(O)c(O)c([N+](=O)[O-])c2)cc1` [TOLCAPONE]: the AC50 in assay [1] is > 10 µM; in assay [2], 12.9 µM; in [3] it was > 10 µM; in [4], 1.1 µM; in assay [5] it was > 10 µM; in assay [6], > 10 µM. In addition, the AC50 in [7] was > 10 µM; in assay [8] it was > 10 µM; in assay [9], > 30 µM; in assay [10], > 10 µM.
Turning to `COC(=O)N[C@H](C(=O)N1CCC[C@H]1c1nc(-c2ccc(-c3ccc(-c4c[nH]c([C@@H]5CCCN5C(=O)[C@@H](NC(=O)OC)C(C)C)n4)cc3)cc2)c[nH]1)C(C)C`, the AC50 in assay [1], in assay [2], in assay [3], in [4], in assay [5] and in assay [6] was > 30 µM each time. Further, the AC50 in assay [7], in assay [8], in assay [9] and in [10] was > 30 µM each time.
For the molecule `COC(=O)N[C@H](C(=O)N[C@@H](Cc1ccccc1)[C@@H](O)CN(Cc1ccc(-c2ccccn2)cc1)NC(=O)[C@@H](NC(=O)OC)C(C)(C)C)C(C)(C)C` [ATAZANAVIR], the AC50 in assay [1] was 10.6 µM; in assay [2] it was > 30 µM; in [3], > 10 µM; in [4], > 30 µM; in [5], > 10 µM; in assay [6] it was > 10 µM. Also, the AC50 in assay [7] is > 10 µM; in assay [8], > 30 µM; in assay [9], > 30 µM; in assay [10], > 10 µM.
For the molecule `CC(C)Cc1ccc(CC(=O)O)cc1` [IBUFENAC], the AC50 in assay [1], in assay [2], in assay [3], in assay [4], in [5] and in [6] was > 30 µM throughout. Further, the AC50 in assay [8], in [9] and in assay [10] was > 30 µM each time.
